The term EC50 denotes the midpoint of the concentration-response curve. High values mean a need for much substance, low ones an effect from little substance.

Experimental findings from BindingDB's records for doi:10.1021/jm100555f (Harvard Medical School, 2010) are described below.

Some results are limits rather than exact numbers.

The nature of this assay: Inhibition of Bcr-Abl in mouse BA/F3 cells.
As for `Cc1c(-c2cc(Nc3ccc(OC(F)(F)F)cc3)ncn2)cnn1-c1ccccc1` [6-(5-methyl-1-phenyl-1H-pyrazol-4-yl)-N-(4-(trifluoromethoxy)phenyl)pyrimidin-4-amine], the EC50 came out at 810 nM.

As to `FC(F)(F)Oc1ccc(Nc2cc(-c3ccncc3)ncn2)cc1` [6-(pyridin-4-yl)-N-(4-(trifluoromethoxy)phenyl)pyrimidin-4-amine], the EC50 amounted to 470 nM.

`FC(F)(F)c1ccc(Nc2cc(-c3ccncc3)ncn2)cc1` [6-(pyridin-4-yl)-N-(4-(trifluoromethyl)phenyl)pyrimidin-4-amine] gave an EC50 of 1270 nM.

With `FC(F)(F)c1ccc(Nc2cc(-c3ccncc3)ncn2)cn1` [6-(pyridin-4-yl)-N-(6-(trifluoromethyl)pyridin-3-yl)pyrimidin-4-amine], the EC50 worked out at 1240 nM.

The compound `FC(F)(F)Oc1ccc(Nc2cc(N3CCOCC3)ncn2)cc1` [6-morpholino-N-(4-(trifluoromethoxy)phenyl)pyrimidin-4-amine] registered an EC50 of 1800 nM.

Consider `FC(F)(F)Oc1ccc(Nc2ncnc3c2ccn3CCN2CCOCC2)cc1` [7-(2-morpholinoethyl)-N-(4-(trifluoromethoxy)phenyl)-7H-pyrrolo[2,3-d]pyrimidin-4-amine], for which a half-maximal effect (EC50) was put at 380 nM.

`Cn1ccc2c(Nc3ccc(OC(F)(F)F)cc3)ncnc21` [7-methyl-N-(4-(trifluoromethoxy)phenyl)-7H-pyrrolo[2,3-d]pyrimidin-4-amine]: the EC50 is 6890 nM.

The compound `O=C(c1cc2c(Nc3ccc(OC(F)(F)F)cc3)ncnc2s1)N1CCC(O)CC1` [(4-hydroxypiperidin-1-yl)(4-(4-(trifluoromethoxy)phenylamino)thieno[2,3-d]pyrimidin-6-yl)methanone] showed an EC50 of 1960 nM.

As to `CN1CCN(C(=O)c2cc3c(Nc4ccc(OC(F)(F)F)cc4)ncnc3s2)CC1` [(4-methylpiperazin-1-yl)(4-(4-(trifluoromethoxy)phenylamino)thieno[2,3-d]pyrimidin-6-yl)methanone], the EC50 was 48 nM.

Consider `FC(F)(F)Oc1ccc(Nc2ncnc(NCCN3CCOCC3)n2)cc1` [N2-(2-morpholinoethyl)-N4-(4-(trifluoromethoxy)phenyl)-1,3,5-triazine-2,4-diamine], for which the EC50 was above 10000 nM.

`FC(F)(F)Oc1ccc(Nc2ccnc(NCCN3CCOCC3)n2)cc1` [N2-(2-morpholinoethyl)-N4-(4-(trifluoromethoxy)phenyl)pyrimidine-2,4-diamine] yielded an EC50 above 10000 nM.

The compound `FC(F)(F)Oc1ccc(Nc2cncc(NCCN3CCOCC3)n2)cc1` [N2-(2-morpholinoethyl)-N6-(4-(trifluoromethoxy)phenyl)pyrazine-2,6-diamine] came in with an EC50 above 10000 nM.

The compound `FC(F)(F)Oc1ccc(Nc2ccc(NCCN3CCOCC3)nn2)cc1` [N3-(2-morpholinoethyl)-N6-(4-(trifluoromethoxy)phenyl)pyridazine-3,6-diamine] displayed an EC50 above 10000 nM.

In turn, `FC(F)(F)Oc1ccc(Nc2nccc(NCCN3CCOCC3)n2)cc1` [N4-(2-morpholinoethyl)-N2-(4-(trifluoromethoxy)phenyl)pyrimidine-2,4-diamine] gave an EC50 above 10000 nM.

With `FC(F)(F)Oc1cccc(Nc2cc(NCCN3CCOCC3)ncn2)c1` [N4-(2-morpholinoethyl)-N6-(3-(trifluoromethoxy)phenyl)pyrimidine-4,6-diamine], the EC50 is above 10000 nM.

With `FC(F)(F)Oc1ccc(CNc2cc(NCCN3CCOCC3)ncn2)cc1` [N4-(2-morpholinoethyl)-N6-(4-(trifluoromethoxy)benzyl)pyrimidine-4,6-diamine], the concentration giving a half-maximal response (EC50) is above 10000 nM.

In turn, `FC(F)(F)Oc1ccc(Nc2cc(NCCN3CCOCC3)ncn2)cc1` [N4-(2-morpholinoethyl)-N6-(4-(trifluoromethoxy)phenyl)pyrimidine-4,6-diamine] yielded an EC50 of 720 nM.

With `FC(F)(F)c1ccc(Nc2cc(NCCN3CCOCC3)ncn2)cc1` [N4-(2-morpholinoethyl)-N6-(4-(trifluoromethyl)phenyl)pyrimidine-4,6-diamine], the response was half-maximal at 920 nM (EC50).
